For one series, the target named is T1, NK-2 receptors (Rattus norvegicus, UniProt P16610).
T1 construct: Duodenums isolated from Fischer strain male rats were homogenized; from tissue; host or cells: duodenum membranes of male Fischer rats
T1 sequence (P16610 1-390): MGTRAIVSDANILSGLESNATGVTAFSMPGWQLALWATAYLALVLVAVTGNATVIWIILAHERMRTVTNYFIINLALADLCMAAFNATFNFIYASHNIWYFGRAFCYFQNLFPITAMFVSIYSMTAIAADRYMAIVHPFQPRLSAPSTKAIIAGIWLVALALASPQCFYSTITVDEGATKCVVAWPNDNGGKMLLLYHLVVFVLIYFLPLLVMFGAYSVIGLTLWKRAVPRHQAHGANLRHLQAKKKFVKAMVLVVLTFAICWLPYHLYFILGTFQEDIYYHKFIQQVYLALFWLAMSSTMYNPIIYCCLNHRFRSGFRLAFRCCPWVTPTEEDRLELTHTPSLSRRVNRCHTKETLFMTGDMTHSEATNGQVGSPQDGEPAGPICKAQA
The experiment in a line: Binding to NK-2 receptors (inhibition of radioactive 125I-neurokinin A binding). In kind it is Fischer strain male rats (duodenum membranes). As to conditions: rat duodenum membrane; 125I-neurokinin A 1×10^-9 M; 90 min, room temperature; read-out: IC50 of drugs in binding of radioactive neurokinin A. Here is the method: Duodenums isolated from Fischer strain male rats were homogenized in 50 mM Tris-hydrochloric acid buffer (pH 7.4) containing saccharose (100 mg/ml) and ethylenediaminetetraacetic acid (1 mM), and the resulting homogenate was centrifuged at 48,000 g and 4° C. for 20 minutes. The pellet thus obtained was washed three times with 10 times as much 50 mM Tris-hydrochloric acid buffer (pH 7.4) containing KCl (300 mM) and ethylenediaminetetraacetic acid (10 mM) as the pellet by volume, and the resulting membrane preparation was suspended in 10 times as much 50 mM Tris-hydrochloric acid buffer (pH 7.4) as the membrane preparation by volume and stored at -80° C. until use. The membrane preparation (20 mg/ml) was incubated together with a radioactive ligand ^125 I-neurokinin A (1×10^-9 M) at room temperature for 90 minutes in the presence of each drug or a solvent therefor in 50 mM Tris-hydrochloricacid buffer (pH 7.4) containing bovine serum albumin (10 mg/ml), bacitracin (40 μg/ml), leupeptin (4 μg/ml), chymostatin (50 μg/ml), antipain (1×10^-4 M) and MnCl2 (1 mM). […] Then, radioactivity in the filter was measured with a gamma counter. The 50% inhibitory concentration (IC50) of the drug was determined by means of a regression line by considering radioactivity in the presence of Nle10 neurokinin A (4-10) (3×10^-6 M) to be due to nonspecific binding, and measuring the rate of inhibition of specific binding by the drug by carrying out a control experiment using the solvent alone.

The test system of the next series is Mouse. Kind of series: Toxic effect on mouse, intravenous. The class given is in vivo. The source says: The toxicity of the compounds of the present invention was investigated.

The IC50 is the concentration needed to halve the response being measured.

Where a name gives a salt, the structure may show the parent alone.

On to `CN(CC(CCN1CCc2nc3c(cc2C1)CCCC3)c1ccc(Cl)c(Cl)c1)C(=O)c1ccccc1` (single isomer, unassigned) [Example 25, 2-[(-)-4-(N-benzoyl-N-methyl)amino-3-(3,4-dichlorophenylbutyll-1,2,3,4,6,7,8,9-octahydro-benzo[b][1,6]naphthyridine fumarate], for which the IC50 on NK-2 receptors came to 56 nM. The Toxicity entry in the series on Mouse (22 μmol/kg intravenous) and in the series with Mouse (65 μmol/kg intravenous) was “None” each time.

These data come from patent publication US6294547A, “Naphthyridine deratives or salts thereof” (Nippon Kayaku Kabushiki Kaisha, priority 1997, dated 2001).
